Results as given in PMC9270327 (Communications Biology, 2022).
Counter-ions that a name gives are not always drawn. Like-named read-outs stand apart in the source and are kept apart here.

Columns and labels:
[1] = molecular target: T1, recombinant human matriptase (Homo sapiens, UniProt Q9Y5Y6); experiment: Enzyme inhibition assay with purified matriptase (Ki, dose-response); type: biochemical; details: for matriptase activity, Mean (Fig. 2b): normalized, 0 nM = 100; for Ki: 30 min preincubation, substrate Boc-Gln-Ala-Arg-AMC
T1 construct: purchased R&D Systems (Minneapolis, MN, USA)
T1 sequence (Q9Y5Y6 1-855): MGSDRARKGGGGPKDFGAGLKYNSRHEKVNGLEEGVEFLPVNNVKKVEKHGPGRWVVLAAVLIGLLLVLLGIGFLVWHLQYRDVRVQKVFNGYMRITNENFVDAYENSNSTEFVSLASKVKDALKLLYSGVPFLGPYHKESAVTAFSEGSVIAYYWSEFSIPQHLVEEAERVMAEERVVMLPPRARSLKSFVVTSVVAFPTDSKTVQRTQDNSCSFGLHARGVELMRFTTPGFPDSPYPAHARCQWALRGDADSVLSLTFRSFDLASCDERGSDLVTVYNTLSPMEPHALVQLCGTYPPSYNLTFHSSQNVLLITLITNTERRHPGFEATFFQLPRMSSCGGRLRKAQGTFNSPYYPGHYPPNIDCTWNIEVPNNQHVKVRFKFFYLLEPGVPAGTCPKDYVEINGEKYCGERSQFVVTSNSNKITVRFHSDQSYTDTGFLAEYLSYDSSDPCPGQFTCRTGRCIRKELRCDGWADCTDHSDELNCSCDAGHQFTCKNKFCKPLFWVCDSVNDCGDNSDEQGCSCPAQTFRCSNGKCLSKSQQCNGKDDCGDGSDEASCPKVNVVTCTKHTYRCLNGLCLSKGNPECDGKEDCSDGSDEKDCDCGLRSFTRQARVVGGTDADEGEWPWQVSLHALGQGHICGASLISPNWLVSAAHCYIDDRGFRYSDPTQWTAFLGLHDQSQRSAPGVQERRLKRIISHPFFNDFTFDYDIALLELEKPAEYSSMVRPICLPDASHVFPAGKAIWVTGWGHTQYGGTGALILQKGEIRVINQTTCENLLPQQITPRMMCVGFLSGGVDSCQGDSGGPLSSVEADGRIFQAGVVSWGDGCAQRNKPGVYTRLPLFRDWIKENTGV

[2] = tested on: lentiviral pseudoparticles carrying SARS-CoV-2 Alpha (B.1.1.7) spike, Caco-2 cells; type: cell-based; details: for IC50: Caco-2 cells, luciferase 2 days post transduction, read-out: IC50 pseudotyped lentivirus Alpha; for SARS-CoV-2 spike driven entry, Mean (0 nM = 100): Fig. 5b
Caco-2 cells = details: Fig. 6e
[3] = tested on: SARS-CoV-2 Beta (B.1.351), Caco-2 cells; type: cell-based; details: for SARS-CoV-2 infection, Mean (0 nM = 100): Fig. 6d, VOC Beta

Molecule	matriptase activity, Mean (Fig. 2b) ([1]; 0.1 nM)	matriptase activity, Mean (Fig. 2b) ([1]; 0.2 nM)	matriptase activity, Mean (Fig. 2b) ([1]; 1 nM)	matriptase activity, Mean (Fig. 2b) ([1]; 10 nM)	matriptase activity, Mean (Fig. 2b) ([1]; 1000 nM)	matriptase activity, Mean (Fig. 2b) ([1]; 50000 nM)	matriptase activity, Mean (Fig. 2b) ([1]; 500000 nM)	Ki [1]	IC50 [2]	SARS-CoV-2 spike driven entry, Mean (0 nM = 100) ([2]; compound 3.2 nM)	SARS-CoV-2 spike driven entry, Mean (0 nM = 100) ([2]; compound 16 nM)	SARS-CoV-2 spike driven entry, Mean (0 nM = 100) ([2]; compound 80 nM)	SARS-CoV-2 spike driven entry, Mean (0 nM = 100) ([2]; compound 400 nM)	SARS-CoV-2 spike driven entry, Mean (0 nM = 100) ([2]; compound 2000 nM)	SARS-CoV-2 spike driven entry, Mean (0 nM = 100) ([2]; compound 10000 nM)	SARS-CoV-2 spike driven entry, Mean (0 nM = 100) ([2]; compound 50000 nM)	IC50 ([3]; read-out: IC50 SARS-CoV-2 Beta)	further results
CN(C)C(=O)COC(=O)Cc1ccc(OC(=O)c2ccc(NC(=N)N)cc2)cc1 [CM, camostat mesylate, reference compound]	98.1997	86.1702	58.838	4.828	0.2455	0.08183	0.1637	0.6 nM	98.7 nM	71.733	72.519	51.5305	39.483	18.526	4.853	1.159	9310 nM	matriptase activity, Mean (Fig. 2b) ([1]; 0.05 nM): 100.491; Cell viability, Mean (0 nM = 100) (Caco-2 cells; compound 0.26 nM): 104.56; Cell viability, Mean (0 nM = 100) (Caco-2 cells; compound 1.28 nM): 104.124; Cell viability, Mean (0 nM = 100) (Caco-2 cells; compound 6.4 nM): 104.38; Cell viability, Mean (0 nM = 100) (Caco-2 cells; compound 32 nM): 101.009; Cell viability, Mean (0 nM = 100) (Caco-2 cells; compound 160 nM): 106.562; Cell viability, Mean (0 nM = 100) (Caco-2 cells; compound 800 nM): 101.849; Cell viability, Mean (0 nM = 100) (Caco-2 cells; compound 4000 nM): 104.127; Cell viability, Mean (0 nM = 100) (Caco-2 cells; compound 20000 nM): 103.706; Cell viability, Mean (0 nM = 100) (Caco-2 cells; compound 100000 nM): 93.2448; IC50 ([3]; read-out: IC50 SARS-CoV-2 Beta (text)): 9300 nM
ace-Arg-Pro-Arg-kbt [Compound 2]	101.198	106.445	70.3881	45.9032	0.7667	-0.2875	-0.6229	3.3 nM	390 nM	80.3695	86.8245	66.7955	63.0945	24.7885	4.5995	0.953	6880 nM	matriptase activity, Mean (Fig. 2b) ([1]; 100 nM): 8.529; Selectivity index Matriptase ([1]; quotient Ki matriptase / Ki TMPRSS2): 0.9; SARS-CoV-2 infection, Mean (0 nM = 100) ([3]; compound 32 nM): 90.9628; SARS-CoV-2 infection, Mean (0 nM = 100) ([3]; compound 160 nM): 88.9778; SARS-CoV-2 infection, Mean (0 nM = 100) ([3]; compound 800 nM): 79.0008; SARS-CoV-2 infection, Mean (0 nM = 100) ([3]; compound 4000 nM): 83.4908; SARS-CoV-2 infection, Mean (0 nM = 100) ([3]; compound 20000 nM): 3.338; SARS-CoV-2 infection, Mean (0 nM = 100) ([3]; compound 100000 nM): -2.162
